Source: US8148391B2 (Cephalon, Inc., priority 2006, dated 2012)
Like-named read-outs stand apart in the source and are kept apart here. Blank lines part the entries; values can stand above or below the compound they belong to.

Columns and labels:
[1] = molecular target: T1, c-Met (cytoplasmic domain) (Homo sapiens, UniProt P08581); experiment: c-Met Kinase Assay (same methods as for ALK, with modifications); format: biochemical
T1 construct: 10 ng/mL c-Met (cytoplasmic domain, Invitrogen Corporation #PV3143); purchased Invitrogen Corporation PV3143
T1 sequence (P08581 956-1390 limits assumed): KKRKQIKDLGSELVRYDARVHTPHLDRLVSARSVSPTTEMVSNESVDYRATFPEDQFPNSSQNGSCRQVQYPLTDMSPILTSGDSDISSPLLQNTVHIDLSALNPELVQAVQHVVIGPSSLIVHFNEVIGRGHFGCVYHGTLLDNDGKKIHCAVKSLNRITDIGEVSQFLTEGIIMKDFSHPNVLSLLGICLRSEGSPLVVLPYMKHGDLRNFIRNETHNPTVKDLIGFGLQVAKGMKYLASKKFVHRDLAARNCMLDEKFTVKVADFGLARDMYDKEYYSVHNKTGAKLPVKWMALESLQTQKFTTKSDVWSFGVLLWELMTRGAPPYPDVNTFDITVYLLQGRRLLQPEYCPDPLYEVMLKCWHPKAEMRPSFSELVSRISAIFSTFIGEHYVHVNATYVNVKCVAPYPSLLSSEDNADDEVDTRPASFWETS
Summary of the method: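 Europium-labeled PT66 antibody (Eu-N1) detects substrate phosphorylation on wells coated with phospholipase C-γ at 10 μg/mL. The kinase, the cytoplasmic domain of c-Met at 10 ng/mL, starts the reaction, which proceeds 15 minutes at 37° C.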

[2] = molecular target: T2, baculovirus-expressed ALK (Homo sapiens, UniProt Q9UM73); experiment: ALK Kinase Assay (ELISA-type, time-resolved fluorescence); format: biochemical
T2 construct: host or cells: baculovirus expression system
T2 sequence (Q9UM73 19-1620): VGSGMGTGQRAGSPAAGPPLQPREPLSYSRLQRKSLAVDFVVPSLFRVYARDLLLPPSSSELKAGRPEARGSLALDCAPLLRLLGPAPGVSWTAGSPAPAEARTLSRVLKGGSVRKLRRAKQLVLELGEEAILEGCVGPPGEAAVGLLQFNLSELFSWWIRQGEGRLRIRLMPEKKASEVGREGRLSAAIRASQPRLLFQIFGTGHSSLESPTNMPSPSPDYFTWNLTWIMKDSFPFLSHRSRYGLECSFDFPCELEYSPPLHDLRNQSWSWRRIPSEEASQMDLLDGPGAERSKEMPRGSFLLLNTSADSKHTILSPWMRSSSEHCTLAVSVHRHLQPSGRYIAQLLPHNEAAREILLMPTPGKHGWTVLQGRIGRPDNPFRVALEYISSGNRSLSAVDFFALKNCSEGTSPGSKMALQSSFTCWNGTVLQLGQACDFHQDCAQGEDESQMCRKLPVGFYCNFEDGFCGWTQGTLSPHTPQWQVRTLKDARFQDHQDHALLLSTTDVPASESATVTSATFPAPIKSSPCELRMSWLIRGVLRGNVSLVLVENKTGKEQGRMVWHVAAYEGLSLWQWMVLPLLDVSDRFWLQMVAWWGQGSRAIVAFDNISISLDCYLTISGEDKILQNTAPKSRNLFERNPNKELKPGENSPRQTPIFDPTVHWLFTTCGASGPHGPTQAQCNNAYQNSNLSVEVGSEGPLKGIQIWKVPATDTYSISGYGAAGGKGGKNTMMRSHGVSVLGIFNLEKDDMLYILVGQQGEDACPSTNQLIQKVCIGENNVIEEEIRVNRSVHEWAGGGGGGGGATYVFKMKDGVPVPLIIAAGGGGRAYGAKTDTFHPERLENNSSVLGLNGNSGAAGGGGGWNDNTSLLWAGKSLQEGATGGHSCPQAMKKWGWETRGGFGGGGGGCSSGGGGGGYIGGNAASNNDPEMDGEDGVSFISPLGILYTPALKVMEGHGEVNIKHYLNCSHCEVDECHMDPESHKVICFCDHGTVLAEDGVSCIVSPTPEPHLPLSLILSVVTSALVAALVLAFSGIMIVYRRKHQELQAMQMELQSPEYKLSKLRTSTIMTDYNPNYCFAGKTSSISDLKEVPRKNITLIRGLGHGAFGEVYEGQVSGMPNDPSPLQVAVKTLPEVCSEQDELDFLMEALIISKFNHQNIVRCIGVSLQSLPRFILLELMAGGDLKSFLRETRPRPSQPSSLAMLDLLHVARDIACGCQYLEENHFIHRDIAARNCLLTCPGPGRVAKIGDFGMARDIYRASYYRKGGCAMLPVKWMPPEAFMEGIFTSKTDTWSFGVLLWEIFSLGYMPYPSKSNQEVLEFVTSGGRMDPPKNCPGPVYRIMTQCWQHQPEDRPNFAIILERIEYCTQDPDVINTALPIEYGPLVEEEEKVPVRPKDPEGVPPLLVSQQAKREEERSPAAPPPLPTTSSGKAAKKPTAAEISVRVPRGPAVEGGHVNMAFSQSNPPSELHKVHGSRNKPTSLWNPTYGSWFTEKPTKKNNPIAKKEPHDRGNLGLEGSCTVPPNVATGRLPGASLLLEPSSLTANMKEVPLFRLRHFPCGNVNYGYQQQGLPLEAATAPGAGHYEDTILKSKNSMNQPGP
Summary of the method: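 Plates coated with phospholipase C-γ substrate (10 μg/mL in TBS); reaction started with 30 ng/ml ALK and run 15 min at 37° C. Phosphorylated substrate detected with Eu-N1-labeled PT66 antibody. IC50 from sigmoidal variable-slope fit of percent inhibition vs log concentration.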

[3] = c-Met kinase inhibition, 1 μM ATP, read-out: cMet Activity
[4] = ALK kinase inhibition, 1 μM ATP, read-out: ALK Activity
[5] = 1 μM ATP (Km level), 10 ng/mL c-Met, read-out: cMet Activity (c-Met kinase inhibition, IC50 class)
[6] = 1 μM ATP (Km level), 30 ng/ml ALK, 37° C., 15 minutes, read-out: ALK Activity (ALK kinase inhibition, IC50 class)
[7] = c-Met kinase inhibition, 1 μM ATP (Km level), read-out: cMet Activity
[8] = ALK kinase inhibition, 1 μM ATP (Km level), read-out: ALK Activity
[9] = 1 μM ATP (Km level), read-out: cMet Activity (c-Met Kinase Inhibition, IC50)
[10] = 1 μM ATP (Km level), read-out: ALK Activity (ALK Kinase Inhibition, IC50)

SMILES: COc1cc2c(cc1Nc1ncc(Cl)c(Nc3ccccc3S(=O)(=O)N(C)C)n1)CCN(CC(=O)N(C)C)CC2 [Example 1141, 2-{7-[5-Chloro-4-(2-dimethylsulfamoyl-phenylamino)-pyrimidin-2-ylamino]-8-methoxy-1,2,4,5-tetrahydro-benzo[d]azepin-3-yl}-N,N-dimethyl-acetamide]
- IC50 [1, 5]: 1000 to 10000 nM
- IC50 [2, 6]: < 100 nM

SMILES: CC1(C)CCC(=O)Nc2ccc(Nc3ncc(Cl)c(N[C@@H]4CCCC[C@H]4NS(C)(=O)=O)n3)cc21 [Example 383, N-{(1R,2R)-2-[5-Chloro-2-(5,5-dimethyl-2-oxo-2,3,4,5-tetrahydro-1H-benzo[b]azepin-7-ylamino)-pyrimidin-4-ylamino]-cyclohexyl}-methanesulfonamide]
- IC50 [1, 7]: 1000 to 10000 nM
- IC50 [2, 8]: < 100 nM

SMILES: CNC(=O)c1cccc(F)c1Nc1nc(Nc2ccc3c(c2)N(C(=O)CN)CCCC3(C)C)ncc1Cl [Example 1617, 2-{2-[1-(2-Amino-acetyl)-5,5-dimethyl-2,3,4,5-tetrahydro-1H-benzo[b]azepin-8-ylamino]-5-chloro-pyrimidin-4-ylamino}-3-fluoro-N-methyl-benzamide]
- IC50 [1, 3]: < 100 nM
- IC50 [2, 4]: 100 to 1000 nM

SMILES: CCN1CCN(CC)c2cc(Nc3ncc(Cl)c(Nc4ccc5c(c4)CN(CCOC)CCS5)n3)ccc2C1 [Example 733, 5-Chloro-N(2)-(1,4-diethyl-2,3,4,5-tetrahydro-1H-benzo[e][1,4]diazepin-8-yl)-N(4)-[8-(2-methoxy-ethyl)-6,7,8,9-tetrahydro-5-thia-8-aza-benzocyclohepten-2-yl]-pyrimidine-2,4-diamine]
- IC50 [1, 9]: 1000 to 10000 nM
- IC50 [2, 10]: < 100 nM

SMILES: COCCN1CCc2cc(Nc3ncc(Cl)c(Nc4ccc(C(N)=O)cc4OC)n3)c(OC)cc2CC1 [Example 1156, 4-{5-Chloro-2-[8-methoxy-3-(2-methoxy-ethyl)-2,3,4,5-tetrahydro-1H-benzo[d]azepin-7-ylamino]-pyrimidin-4-ylamino}-3-methoxy-benzamide]
- IC50 [1, 5]: > 10000 nM
- IC50 [2, 6]: < 100 nM

SMILES: COc1cc2c(cc1Nc1ncc(F)c(Nc3ccc(N4CCOCC4)cc3OC)n1)CCN(CC(=O)N(C)C)CC2 [Example 808, 2-{7-[5-Fluoro-4-(2-methoxy-4-morpholin-4-yl-phenylamino)-pyrimidin-2-ylamino]-8-methoxy-1,2,4,5-tetrahydro-benzo[d]azepin-3-yl}-N,N-dimethyl-acetamide]
- IC50 [1, 9]: > 10000 nM
- IC50 [2, 10]: < 100 nM

SMILES: COCCNC1CCc2cc(Nc3ncc(Cl)c(N[C@@H]4CCCC[C@H]4NS(C)(=O)=O)n3)c(OC)cc2CC1 (stereo partly drawn) [Example 896, N-((1R,2R)-2-{5-Chloro-2-[3-methoxy-7-(2-methoxy-ethylamino)-6,7,8,9-tetrahydro-5H-benzocyclohepten-2-ylamino]-pyrimidin-4-ylamino}-cyclohexyl)-methanesulfonamide]
- IC50 [1, 9]: > 10000 nM
- IC50 [2, 10]: < 100 nM

SMILES: COc1cc2c(cc1Nc1ncc(Cl)c(Nc3ccc(N(C)C)cc3OC)n1)CCN(CC(=O)N(C)C)CC2 [Example 1166, 2-{7-[5-Chloro-4-(4-dimethylamino-2-methoxy-phenylamino)-pyrimidin-2-ylamino]-8-methoxy-1,2,4,5-tetrahydro-benzo[d]azepin-3-yl}-N,N-dimethyl-acetamide]
- IC50 [1, 5]: > 10000 nM
- IC50 [2, 6]: < 100 nM

SMILES: CN1C(=O)OCCc2cc(Nc3ncc(Cl)c(Nc4c(F)cccc4OC4CCOC4)n3)ccc21 (stereo not shown) [Example 1300, 2-{5-Chloro-4-[2-fluoro-6-(tetrahydro-furan-3-yloxy)-phenylamino]-pyrimidin-2-ylamino}-5-methyl-8,9-dihydro-5H-7-oxa-5-aza-benzocyclohepten-6-one]
- IC50 [1, 5]: < 100 nM
- IC50 [2, 6]: 100 to 1000 nM

SMILES: COc1ccc(Nc2nc(Nc3cc4c(cc3OC)CCN(CC3COCCO3)CC4)ncc2Cl)c(-n2cccn2)c1 (stereo not shown) [Example 636, 5-Chloro-N*2*-(3-[1,4]dioxan-2-ylmethyl-8-methoxy-2,3,4,5-tetrahydro-1H-benzo[d]azepin-7-yl)-N*4*-(4-methoxy-2-pyrazol-1-yl-phenyl)-pyrimidine-2,4-diamine]
- IC50 [1, 9]: > 10000 nM
- IC50 [2, 10]: < 100 nM

SMILES: Cn1ccnc1-c1ccccc1Nc1nc(Nc2ccc3c(c2)CCC(NCC(F)F)CC3)ncc1Cl (stereo not shown) [Example 661, 5-Chloro-N*2*-[7-(2,2-difluoro-ethylamino)-6,7,8,9-tetrahydro-5H-benzocyclohepten-2-yl]-N*4*-[2-(1-methyl-1H-imidazol-2-yl)-phenyl]-pyrimidine-2,4-diamine]
- IC50 [1, 9]: 100 to 1000 nM
- IC50 [2, 10]: 100 to 1000 nM

SMILES: CNC(=O)c1ccccc1Nc1nc(Nc2ccc3c(c2)CCN(C(C)C)CC3)ncc1Cl [Example 47, 2-[5-Chloro-2-(3-isopropyl-2,3,4,5-tetrahydro-1H-benzo[d]azepin-7-ylamino)-pyrimidin-4-ylamino]-N-methyl-benzamide]
- IC50 [1, 7]: < 100 nM
- IC50 [2, 8]: < 100 nM

SMILES: COc1ccccc1Nc1nc(Nc2ccc3c(c2)CCC(N2CCN(C)CC2)CC3)ncc1Cl (stereo not shown) [Example 891, 5-Chloro-N*4*-(2-methoxy-phenyl)-N*2*-[7-(4-methyl-piperazin-1-yl)-6,7,8,9-tetrahydro-5H-benzocyclohepten-2-yl]-pyrimidine-2,4-diamine]
- IC50 [1, 9]: 1000 to 10000 nM
- IC50 [2, 10]: < 100 nM

SMILES: COc1cc2c(cc1Nc1ncc(Cl)c(Nc3ccccc3S(=O)(=O)N3CCCC3)n1)CCN(CCS(C)(=O)=O)CC2 [Example 1178, 5-Chloro-N*2*-[3-(2-methanesulfonyl-ethyl)-8-methoxy-2,3,4,5-tetrahydro-1H-benzo[d]azepin-7-yl]-N*4*-[2-(pyrrolidine-1-sulfonyl)-phenyl]-pyrimidine-2,4-diamine]
- IC50 [1, 5]: 100 to 1000 nM
- IC50 [2, 6]: < 100 nM

SMILES: CNC(=O)c1cccc(F)c1Nc1nc(Nc2ccc3c(c2)NC(=O)C(N2CCOCC2)CC3)ncc1Cl (stereo not shown) [Example 1491, 2-[5-Chloro-2-(3-morpholin-4-yl-2-oxo-2,3,4,5-tetrahydro-1H-benzo[b]azepin-8-ylamino)-pyrimidin-4-ylamino]-3-fluoro-N-methyl-benzamide]
- IC50 [1, 3]: < 100 nM
- IC50 [2, 4]: < 100 nM

Results, then the compound that gave them:

- IC50 [1, 3]: < 100 nM
- IC50 [2, 4]: 100 to 1000 nM
SMILES: C#CCNC(=O)c1sccc1Nc1nc(Nc2ccc3c(c2)CCOC(=O)N3C)ncc1Cl [Example 1760, 3-[5-Chloro-2-(5-methyl-6-oxo-5,6,8,9-tetrahydro-7-oxa-5-aza-benzocyclohepten-2-ylamino)-pyrimidin-4-ylamino]-thiophene-2-carboxylic acid prop-2-ynylamide]

- IC50 [1, 3]: < 100 nM
- IC50 [2, 4]: 1000 to 10000 nM
SMILES: CNC(=O)c1cccc(Cl)c1Nc1nc(Nc2ccc3c(c2)CCOC(=O)N3C)ncc1Cl [Example 1743, 3-Chloro-2-[5-chloro-2-(5-methyl-6-oxo-5,6,8,9-tetrahydro-7-oxa-5-aza-benzocyclohepten-2-ylamino)-pyrimidin-4-ylamino]-N-methyl-benzamide]

- IC50 [1, 3]: 100 to 1000 nM
- IC50 [2, 4]: < 100 nM
SMILES: C#CCNC(=O)c1cccc(F)c1Nc1nc(Nc2ccc3c(c2)N(CCN(C)C)CCCC3(C)C)ncc1Cl [Example 1639, 2-{5-Chloro-2-[1-(2-dimethylamino-ethyl)-5,5-dimethyl-2,3,4,5-tetrahydro-1H-benzo[b]azepin-8-ylamino]-pyrimidin-4-ylamino}-3-fluoro-N-prop-2-ynyl-benzamide]

- IC50 [1, 3]: 100 to 1000 nM
- IC50 [2, 4]: < 100 nM
SMILES: CCN1CCCOc2cc(Nc3ncc(Cl)c(N[C@@H]4CCCC[C@H]4NS(C)(=O)=O)n3)ccc21 [Example 1693, N-{(1R,2R)-2-[5-Chloro-2-(9-ethyl-6,7,8,9-tetrahydro-5-oxa-9-aza-benzocyclohepten-3-ylamino)-pyrimidin-4-ylamino]-cyclohexyl}-methanesulfonamide]

- IC50 [1, 3]: > 10000 nM
- IC50 [2, 4]: 100 to 1000 nM
SMILES: CCN1C(=O)CCCc2c1ccc(Nc1ncc(Cl)c(N[C@@H]3CCCC[C@H]3N(C)S(C)(=O)=O)n1)c2OC [Example 1679, N-{(1R,2R)-2-[5-Chloro-2-(1-ethyl-6-methoxy-2-oxo-2,3,4,5-tetrahydro-1H-benzo[b]azepin-7-ylamino)-pyrimidin-4-ylamino]-cyclohexyl}-N-methyl-methanesulfonamide]

- IC50 [1, 3]: < 100 nM
- IC50 [2, 4]: < 100 nM
SMILES: CNC(=O)c1c(F)cccc1Nc1nc(Nc2ccc3c(c2)CCOC(=O)N3C)ncc1Cl [Example 1756, 2-[5-Chloro-2-(5-methyl-6-oxo-5,6,8,9-tetrahydro-7-oxa-5-aza-benzocyclohepten-2-ylamino)-pyrimidin-4-ylamino]-6-fluoro-N-methyl-benzamide]

- IC50 [1, 3]: 100 to 1000 nM
- IC50 [2, 4]: 100 to 1000 nM
SMILES: CCN1CCCC(C)(C)c2ccc(Nc3ncc(Cl)c(Nc4c(F)cccc4C(=O)NC)n3)cc21 [Example 1632, 2-[5-Chloro-2-(1-ethyl-5,5-dimethyl-2,3,4,5-tetrahydro-1H-benzo[b]azepin-8-ylamino)-pyrimidin-4-ylamino]-3-fluoro-N-methyl-benzamide]

- IC50 [1, 3]: < 100 nM
- IC50 [2, 4]: < 100 nM
SMILES: C#CCNC(=O)c1cccc(F)c1Nc1nc(Nc2ccc3c(c2)OCCCN3C(C)=O)ncc1Cl [Example 1725, 2-[2-(9-Acetyl-6,7,8,9-tetrahydro-5-oxa-9-aza-benzocyclohepten-3-ylamino)-5-chloro-pyrimidin-4-ylamino]-3-fluoro-N-prop-2-ynyl-benzamide]
